How the values were obtained:
Assay type in all cases: cell-based
53 CRE and CPE strains = assay: MICrange, MIC50, MIC80, MIC90 for 53 bacterial isolates (Example 5, Table 5); conditions: 53 bacterial isolates
[1] = tested on: Metallo-β-lactamase producing strains (N = 27); assay: MIC50/MIC90 for carbapenemase-producing isolates (Example 5, Table 6); design: MIC50: unit not given here
P. aeruginosa = assay: MIC, broth microdilution, CDC/FDA Antibiotic Resistance Isolate Bank (Example 7, Tables 10, 15)
[2] = 26 metallo-carbapenemase-producing P. aeruginosa strains, β-lactamase inhibitor µg/mL in parentheses
[3] = 96 strains of P. aeruginosa, β-lactamase inhibitor µg/mL in parentheses

For colistin, the MIC50 (53 CRE and CPE strains) was 0.5 µg/mL, the MIC80 (53 CRE and CPE strains) was 1 µg/mL and the MIC90 (53 CRE and CPE strains) was 32 µg/mL. For the same substance, the MIC50 ([1]; Metallo-β-lactamase (N = 27): IMP-1 (12), IMP-6 (3), IMP-34 (1), NDM-1 (8), NDM-6 (1), VIM-1 (2)) was 0.25, the MIC90 ([1]; metallo-β-lactamase-producing strains, combination: Compound A at a fixed concentration of 4 µg/mL) was 1 µg/mL and the “MIC against 26 metallo-carbapenemase-producing strains MIC50” value (P. aeruginosa; [2]) was 1 µg(mL). For the same substance, the “MIC against 26 metallo-carbapenemase-producing strains MIC80” value (P. aeruginosa; [2]) was 1 µg(mL), the “MIC against 26 metallo-carbapenemase-producing strains MIC90” value (P. aeruginosa; [2]) was 1 µg(mL) and the “MIC against 26 metallo-carbapenemase-producing strains MICrange” value (P. aeruginosa; [2]) was 0.5 - 2 µg(mL). The “MIC against 96 strains of P. aeruginosa MIC50” value (P. aeruginosa; [3]) was 1 µg(mL), the “MIC against 96 strains of P. aeruginosa MIC80” value (P. aeruginosa; [3]) was 1 µg(mL) and the “MIC against 96 strains of P. aeruginosa MIC90” value (P. aeruginosa; [3]) was 1 µg(mL). For the same substance, the “MIC against 96 strains of P. aeruginosa MICrange” value (P. aeruginosa; [3]) was 0.25 - 2 µg(mL), the MIC (P. aeruginosa; P. aeruginosa KUB No. 579, AR Bank # 447) was 1 µg/mL and the MIC (P. aeruginosa; P. aeruginosa KUB No. 5083, AR Bank # 250) was 1 µg/mL. For the same substance, the MIC (P. aeruginosa; P. aeruginosa KUB No. 5551, AR Bank # 54) was 2 µg/mL, the MIC (P. aeruginosa; P. aeruginosa KUB No. 5561, AR Bank # 64) was 1 µg/mL and the MIC (P. aeruginosa; P. aeruginosa KUB No. 5587, AR Bank # 90) was 1 µg/mL. It also gave an MIC (P. aeruginosa; P. aeruginosa KUB No. 5589, AR Bank # 92) of 1 µg/mL, an MIC (P. aeruginosa; P. aeruginosa KUB No. 5591, AR Bank # 94) of 1 µg/mL and an MIC (P. aeruginosa; P. aeruginosa KUB No. 5592, AR Bank # 95) of 1 µg/mL. The MIC (P. aeruginosa; P. aeruginosa KUB No. 5597, AR Bank # 100) was 1 µg/mL, the MIC (P. aeruginosa; P. aeruginosa KUB No. 5600, AR Bank # 103) was 1 µg/mL and the MIC (P. aeruginosa; P. aeruginosa KUB No. 5602, AR Bank # 105) was 1 µg/mL. The MIC (P. aeruginosa; P. aeruginosa KUB No. 5605, AR Bank # 108) was 1 µg/mL, the MIC (P. aeruginosa; P. aeruginosa KUB No. 5607, AR Bank # 110) was 1 µg/mL and the MIC (P. aeruginosa; P. aeruginosa KUB No. 5608, AR Bank # 111) was 1 µg/mL. The MIC (P. aeruginosa; P. aeruginosa KUB No. 5662, AR Bank # 229) was 1 µg/mL, the MIC (P. aeruginosa; P. aeruginosa KUB No. 5663, AR Bank # 230) was 1 µg/mL and the MIC (P. aeruginosa; P. aeruginosa KUB No. 5664, AR Bank # 231) was 1 µg/mL. The MIC (P. aeruginosa; P. aeruginosa KUB No. 5665, AR Bank # 232) was 1 µg/mL, the MIC (P. aeruginosa; P. aeruginosa KUB No. 5666, AR Bank # 23) was 1 µg/mL and the MIC (P. aeruginosa; P. aeruginosa KUB No. 5667, AR Bank # 234) was 1 µg/mL. It also gave an MIC (P. aeruginosa; P. aeruginosa KUB No. 5668, AR Bank # 235) of 0.5 µg/mL, an MIC (P. aeruginosa; P. aeruginosa KUB No. 5669, AR Bank # 236) of 1 µg/mL and an MIC (P. aeruginosa; P. aeruginosa KUB No. 5670, AR Bank # 237) of 0.5 µg/mL. The MIC (P. aeruginosa; P. aeruginosa KUB No. 5671, AR Bank # 238) was 1 µg/mL, the MIC (P. aeruginosa; P. aeruginosa KUB No. 5672, AR Bank # 239) was 1 µg/mL and the MIC (P. aeruginosa; P. aeruginosa KUB No. 5673, AR Bank # 240) was 1 µg/mL. The MIC (P. aeruginosa; P. aeruginosa KUB No. 5674, AR Bank # 241) was 1 µg/mL, the MIC (P. aeruginosa; P. aeruginosa KUB No. 5675, AR Bank # 242) was 0.5 µg/mL and the MIC (P. aeruginosa; P. aeruginosa KUB No. 5676, AR Bank # 243) was 1 µg/mL. For the same substance, the MIC (P. aeruginosa; P. aeruginosa KUB No. 5677, AR Bank # 244) was 1 µg/mL, the MIC (P. aeruginosa; P. aeruginosa KUB No. 5678, AR Bank # 245) was 1 µg/mL and the MIC (P. aeruginosa; P. aeruginosa KUB No. 5679, AR Bank # 246) was 0.5 µg/mL. For the same substance, the MIC (P. aeruginosa; P. aeruginosa KUB No. 5680, AR Bank # 247) was 0.5 µg/mL, the MIC (P. aeruginosa; P. aeruginosa KUB No. 5681, AR Bank # 248) was 1 µg/mL and the MIC (P. aeruginosa; P. aeruginosa KUB No. 5682, AR Bank # 249) was 0.5 µg/mL. For the same substance, the MIC (P. aeruginosa; P. aeruginosa KUB No. 5684, AR Bank # 251) was 0.5 µg/mL, the MIC (P. aeruginosa; P. aeruginosa KUB No. 5685, AR Bank # 252) was 1 µg/mL and the MIC (P. aeruginosa; P. aeruginosa KUB No. 5686, AR Bank # 253) was 1 µg/mL. The MIC (P. aeruginosa; P. aeruginosa KUB No. 5687, AR Bank # 254) was 1 µg/mL, the MIC (P. aeruginosa; P. aeruginosa KUB No. 5688, AR Bank # 255) was 1 µg/mL and the MIC (P. aeruginosa; P. aeruginosa KUB No. 5689, AR Bank # 256) was 0.5 µg/mL. It also gave an MIC (P. aeruginosa; P. aeruginosa KUB No. 5690, AR Bank # 257) of 1 µg/mL, an MIC (P. aeruginosa; P. aeruginosa KUB No. 5691, AR Bank # 258) of 0.5 µg/mL and an MIC (P. aeruginosa; P. aeruginosa KUB No. 5692, AR Bank # 259) of 1 µg/mL. The MIC (P. aeruginosa; P. aeruginosa KUB No. 5693, AR Bank # 260) was 1 µg/mL, the MIC (P. aeruginosa; P. aeruginosa KUB No. 5694, AR Bank # 261) was 1 µg/mL and the MIC (P. aeruginosa; P. aeruginosa KUB No. 5695, AR Bank # 262) was 1 µg/mL. The MIC (P. aeruginosa; P. aeruginosa KUB No. 5696, AR Bank # 263) was 0.5 µg/mL, the MIC (P. aeruginosa; P. aeruginosa KUB No. 5697, AR Bank # 264) was 1 µg/mL and the MIC (P. aeruginosa; P. aeruginosa KUB No. 5698, AR Bank # 265) was 1 µg/mL. It also gave an MIC (P. aeruginosa; P. aeruginosa KUB No. 5699, AR Bank # 266) of 1 µg/mL, an MIC (P. aeruginosa; P. aeruginosa KUB No. 5700, AR Bank # 267) of 1 µg/mL and an MIC (P. aeruginosa; P. aeruginosa KUB No. 5701, AR Bank # 268) of 1 µg/mL. For the same substance, the MIC (P. aeruginosa; P. aeruginosa KUB No. 5702, AR Bank # 269) was 1 µg/mL, the MIC (P. aeruginosa; P. aeruginosa KUB No. 5703, AR Bank # 270) was 1 µg/mL and the MIC (P. aeruginosa; P. aeruginosa KUB No. 5704, AR Bank # 271) was 1 µg/mL. It also gave an MIC (P. aeruginosa; P. aeruginosa KUB No. 5705, AR Bank # 272) of 1 µg/mL, an MIC (P. aeruginosa; P. aeruginosa KUB No. 5747, AR Bank # 351) of 1 µg/mL and an MIC (P. aeruginosa; P. aeruginosa KUB No. 5748, AR Bank # 352) of 0.5 µg/mL. It also gave an MIC (P. aeruginosa; P. aeruginosa KUB No. 5749, AR Bank # 353) of 0.5 µg/mL, an MIC (P. aeruginosa; P. aeruginosa KUB No. 5750, AR Bank # 354) of 1 µg/mL and an MIC (P. aeruginosa; P. aeruginosa KUB No. 5751, AR Bank # 355) of 1 µg/mL. The MIC (P. aeruginosa; P. aeruginosa KUB No. 5752, AR Bank # 356) was 0.5 µg/mL, the MIC (P. aeruginosa; P. aeruginosa KUB No. 5753, AR Bank # 357) was 1 µg/mL and the MIC (P. aeruginosa; P. aeruginosa KUB No. 5754, AR Bank # 358) was 1 µg/mL. The MIC (P. aeruginosa; P. aeruginosa KUB No. 5755, AR Bank # 359) was 1 µg/mL, the MIC (P. aeruginosa; P. aeruginosa KUB No. 5756, AR Bank # 360) was 1 µg/mL and the MIC (P. aeruginosa; P. aeruginosa KUB No. 5785, AR Bank # 439) was 0.5 µg/mL. The MIC (P. aeruginosa; P. aeruginosa KUB No. 5786, AR Bank # 440) was 1 µg/mL, the MIC (P. aeruginosa; P. aeruginosa KUB No. 5787, AR Bank # 441) was 0.5 µg/mL and the MIC (P. aeruginosa; P. aeruginosa KUB No. 5788, AR Bank # 443) was 1 µg/mL. The MIC (P. aeruginosa; P. aeruginosa KUB No. 5789, AR Bank # 444) was 1 µg/mL, the MIC (P. aeruginosa; P. aeruginosa KUB No. 5790, AR Bank # 445) was 1 µg/mL and the MIC (P. aeruginosa; P. aeruginosa KUB No. 5793, AR Bank # 449) was 1 µg/mL. For the same substance, the MIC (P. aeruginosa; P. aeruginosa KUB No. 5798, AR Bank # 455) was 0.25 µg/mL, the MIC (P. aeruginosa; P. aeruginosa KUB No. 5799, AR Bank # 456) was 1 µg/mL and the MIC (P. aeruginosa; P. aeruginosa KUB No. 5800, AR Bank # 457) was 0.5 µg/mL. For the same substance, the MIC (P. aeruginosa; P. aeruginosa KUB No. 5801, AR Bank # 458) was 0.5 µg/mL, the MIC (P. aeruginosa; P. aeruginosa KUB No. 5802, AR Bank # 459) was 0.5 µg/mL and the MIC (P. aeruginosa; P. aeruginosa KUB No. 5804, AR Bank # 862) was 1 µg/mL. For the same substance, the MIC (P. aeruginosa; P. aeruginosa KUB No. 5805, AR Bank # 863) was 1 µg/mL, the MIC (P. aeruginosa; P. aeruginosa KUB No. 5806, AR Bank # 864) was 1 µg/mL and the MIC (P. aeruginosa; P. aeruginosa KUB No. 5813, AR Bank # 508) was 0.0005 µg/mL. The MIC (P. aeruginosa; P. aeruginosa KUB No. 5814, AR Bank # 509) was 0.001 µg/mL, the MIC (P. aeruginosa; P. aeruginosa KUB No. 5815, AR Bank # 510) was 0.0005 µg/mL and the MIC (P. aeruginosa; P. aeruginosa KUB No. 5816, AR Bank # 511) was 0.0005 µg/mL. The MIC (P. aeruginosa; P. aeruginosa KUB No. 5817, AR Bank # 512) was 0.001 µg/mL, the MIC (P. aeruginosa; P. aeruginosa KUB No. 5818, AR Bank # 513) was 0.001 µg/mL and the MIC (P. aeruginosa; P. aeruginosa KUB No. 5819, AR Bank # 514) was 0.001 µg/mL. It also gave an MIC (P. aeruginosa; P. aeruginosa KUB No. 5820, AR Bank # 515) of 0.001 µg/mL, an MIC (P. aeruginosa; P. aeruginosa KUB No. 5821, AR Bank # 516) of 0.001 µg/mL and an MIC (P. aeruginosa; P. aeruginosa KUB No. 5823, AR Bank # 518) of 0.001 µg/mL. The MIC (P. aeruginosa; P. aeruginosa KUB No. 5831, AR Bank # 526) was 0.001 µg/mL, the MIC (P. aeruginosa; P. aeruginosa KUB No. 5832, AR Bank # 527) was 0.0005 µg/mL and the MIC (P. aeruginosa; P. aeruginosa KUB No. 5833, AR Bank # 528) was 0.001 µg/mL. It also gave an MIC (P. aeruginosa; P. aeruginosa KUB No. 5834, AR Bank # 529) of 0.001 µg/mL.

Reference: patent EP4635500A1, “THERAPEUTIC AGENT FOR BACTERIAL INFECTION” (Sumitomo Pharma Co., Ltd., priority 2022, dated 2024)
